PMC7156458, “Synthetic biology based construction of biological activity-related library of fungal decalin-containing diterpenoid pyrones” (Nature Communications, 2020)

Target: Aβ42 (Homo sapiens, UniProt P05067)
Assay: Th-T (thioflavin-T) assay of Aβ42 aggregation
Assay type: biochemical
Details: for Th-T fluorescence of Aβ42 (sheet Fig. 7a), mean of three wells: head suffix _50 (concentration 50); for Th-T assay plate reading, mean of three wells (Supplementary Fig. 47): source data, Ab alone and No Ab as controls; for Th-T fluorescence, mean of three wells: Supplementary Fig. 47 source data

Aβ42, sequence (P05067 672-713): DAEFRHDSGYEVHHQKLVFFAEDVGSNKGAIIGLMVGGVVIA

C=C1CCC2C(C)(CCC=C(C)C)C(O)CCC2(C)C1Cc1c(OC)oc(CO)c(C)c1=O (stereo not drawn) [Compound 12]
Th-T fluorescence of Aβ42 (sheet Fig. 7a), mean of three wells (reading M73): 1.414
Th-T fluorescence of Aβ42 (sheet Fig. 7a), mean of three wells (reading M74): 1.457
Th-T fluorescence of Aβ42 (sheet Fig. 7a), mean of three wells (reading M75): 1.421
Th-T fluorescence of Aβ42 (sheet Fig. 7a), mean of three wells (reading M76): 1.415
Th-T fluorescence of Aβ42 (sheet Fig. 7a), mean of three wells (reading M77): 1.436
Th-T fluorescence of Aβ42 (sheet Fig. 7a), mean of three wells (reading M78): 1.437
Th-T fluorescence of Aβ42 (sheet Fig. 7a), mean of three wells (reading M79): 1.425
Th-T fluorescence of Aβ42 (sheet Fig. 7a), mean of three wells (reading M80): 1.423
Th-T fluorescence of Aβ42 (sheet Fig. 7a), mean of three wells (reading M81): 1.42
Th-T fluorescence of Aβ42 (sheet Fig. 7a), mean of three wells (reading M82): 1.419
Th-T fluorescence of Aβ42 (sheet Fig. 7a), mean of three wells (reading M83): 1.439
Th-T fluorescence of Aβ42 (sheet Fig. 7a), mean of three wells (reading M84): 1.415
Th-T assay plate reading, mean of three wells (Supplementary Fig. 47) (measurement M1): 0.2937
Th-T assay plate reading, mean of three wells (Supplementary Fig. 47) (measurement M2): 0.2498
Th-T assay plate reading, mean of three wells (Supplementary Fig. 47) (measurement M3): 0.2612
Th-T assay plate reading, mean of three wells (Supplementary Fig. 47) (measurement M4): 0.2666
Th-T assay plate reading, mean of three wells (Supplementary Fig. 47) (measurement M5): 0.2891
Th-T assay plate reading, mean of three wells (Supplementary Fig. 47) (measurement M6): 0.324
Th-T assay plate reading, mean of three wells (Supplementary Fig. 47) (measurement M7): 0.6238
Th-T assay plate reading, mean of three wells (Supplementary Fig. 47) (measurement M8): 1.342
Th-T assay plate reading, mean of three wells (Supplementary Fig. 47) (measurement M9): 1.95
Th-T assay plate reading, mean of three wells (Supplementary Fig. 47) (measurement M10): 2.214
Th-T assay plate reading, mean of three wells (Supplementary Fig. 47) (measurement M11): 2.313
Th-T assay plate reading, mean of three wells (Supplementary Fig. 47) (measurement M12): 2.311
Th-T assay plate reading, mean of three wells (Supplementary Fig. 47) (measurement M13): 2.302
Th-T assay plate reading, mean of three wells (Supplementary Fig. 47) (measurement M14): 2.328
Th-T assay plate reading, mean of three wells (Supplementary Fig. 47) (measurement M15): 2.358
Th-T assay plate reading, mean of three wells (Supplementary Fig. 47) (measurement M16): 2.3929
Th-T fluorescence, mean of three wells (Fig. 7a) (reading M107, compound at 10 (head suffix _10)): 2.747
Th-T fluorescence, mean of three wells (Fig. 7a) (reading M107, compound at 20 (head suffix _20)): 2.1149
Th-T fluorescence, mean of three wells (Fig. 7a) (reading M107, compound at 50 (head suffix _50)): 1.42
Th-T fluorescence, mean of three wells (Fig. 7a) (reading M108, compound at 10 (head suffix _10)): 2.748
Th-T fluorescence, mean of three wells (Fig. 7a) (reading M108, compound at 20 (head suffix _20)): 2.099
Th-T fluorescence, mean of three wells (Fig. 7a) (reading M108, compound at 50 (head suffix _50)): 1.438
Th-T fluorescence, mean of three wells (Fig. 7a) (reading M109, compound at 10 (head suffix _10)): 2.719
Th-T fluorescence, mean of three wells (Fig. 7a) (reading M109, compound at 20 (head suffix _20)): 2.112
Th-T fluorescence, mean of three wells (Fig. 7a) (reading M109, compound at 50 (head suffix _50)): 1.43
Th-T fluorescence, mean of three wells (Fig. 7a) (reading M110, compound at 10 (head suffix _10)): 2.701
Th-T fluorescence, mean of three wells (Fig. 7a) (reading M110, compound at 20 (head suffix _20)): 2.0943
Th-T fluorescence, mean of three wells (Fig. 7a) (reading M110, compound at 50 (head suffix _50)): 1.437
Th-T fluorescence, mean of three wells (Fig. 7a) (reading M111, compound at 10 (head suffix _10)): 2.678
Th-T fluorescence, mean of three wells (Fig. 7a) (reading M111, compound at 20 (head suffix _20)): 2.0886
Th-T fluorescence, mean of three wells (Fig. 7a) (reading M111, compound at 50 (head suffix _50)): 1.44
Th-T fluorescence, mean of three wells (Fig. 7a) (reading M112, compound at 10 (head suffix _10)): 2.674
Th-T fluorescence, mean of three wells (Fig. 7a) (reading M112, compound at 20 (head suffix _20)): 2.104
Th-T fluorescence, mean of three wells (Fig. 7a) (reading M112, compound at 50 (head suffix _50)): 1.449
Th-T fluorescence, mean of three wells (Fig. 7a) (reading M113, compound at 10 (head suffix _10)): 2.652
Th-T fluorescence, mean of three wells (Fig. 7a) (reading M113, compound at 20 (head suffix _20)): 2.1068
Th-T fluorescence, mean of three wells (Fig. 7a) (reading M113, compound at 50 (head suffix _50)): 1.457
Th-T fluorescence, mean of three wells (Fig. 7a) (reading M114, compound at 10 (head suffix _10)): 2.644
Th-T fluorescence, mean of three wells (Fig. 7a) (reading M114, compound at 20 (head suffix _20)): 2.09
Th-T fluorescence, mean of three wells (Fig. 7a) (reading M114, compound at 50 (head suffix _50)): 1.449
Th-T fluorescence, mean of three wells (Fig. 7a) (reading M115, compound at 10 (head suffix _10)): 2.617
Th-T fluorescence, mean of three wells (Fig. 7a) (reading M115, compound at 20 (head suffix _20)): 2.12
Th-T fluorescence, mean of three wells (Fig. 7a) (reading M115, compound at 50 (head suffix _50)): 1.466
Th-T fluorescence, mean of three wells (Fig. 7a) (reading M116, compound at 10 (head suffix _10)): 2.617
Th-T fluorescence, mean of three wells (Fig. 7a) (reading M116, compound at 20 (head suffix _20)): 2.1099
Th-T fluorescence, mean of three wells (Fig. 7a) (reading M116, compound at 50 (head suffix _50)): 1.496
Th-T fluorescence, mean of three wells (Fig. 7a) (reading M117, compound at 10 (head suffix _10)): 2.5929
Th-T fluorescence, mean of three wells (Fig. 7a) (reading M117, compound at 20 (head suffix _20)): 2.13
Th-T fluorescence, mean of three wells (Fig. 7a) (reading M117, compound at 50 (head suffix _50)): 1.473
Th-T fluorescence, mean of three wells (Fig. 7a) (reading M118, compound at 10 (head suffix _10)): 2.576
Th-T fluorescence, mean of three wells (Fig. 7a) (reading M118, compound at 20 (head suffix _20)): 2.113
Th-T fluorescence, mean of three wells (Fig. 7a) (reading M118, compound at 50 (head suffix _50)): 1.488
Th-T fluorescence, mean of three wells (Fig. 7a) (reading M119, compound at 10 (head suffix _10)): 2.572
Th-T fluorescence, mean of three wells (Fig. 7a) (reading M119, compound at 20 (head suffix _20)): 2.161
Th-T fluorescence, mean of three wells (Fig. 7a) (reading M119, compound at 50 (head suffix _50)): 1.496
Th-T fluorescence, mean of three wells (Fig. 7a) (reading M120, compound at 10 (head suffix _10)): 2.541
Th-T fluorescence, mean of three wells (Fig. 7a) (reading M120, compound at 20 (head suffix _20)): 2.1524
Th-T fluorescence, mean of three wells (Fig. 7a) (reading M120, compound at 50 (head suffix _50)): 1.517
Th-T fluorescence, mean of three wells (Fig. 7a) (reading M121, compound at 10 (head suffix _10)): 2.53
Th-T fluorescence, mean of three wells (Fig. 7a) (reading M121, compound at 20 (head suffix _20)): 2.137
Th-T fluorescence, mean of three wells (Fig. 7a) (reading M121, compound at 50 (head suffix _50)): 1.531
Th-T fluorescence, mean of three wells (Fig. 7a) (reading M122, compound at 10 (head suffix _10)): 2.517
Th-T fluorescence, mean of three wells (Fig. 7a) (reading M122, compound at 20 (head suffix _20)): 2.124
Th-T fluorescence, mean of three wells (Fig. 7a) (reading M122, compound at 50 (head suffix _50)): 1.501
Th-T fluorescence, mean of three wells (Fig. 7a) (reading M123, compound at 10 (head suffix _10)): 2.493
Th-T fluorescence, mean of three wells (Fig. 7a) (reading M123, compound at 20 (head suffix _20)): 2.112
Th-T fluorescence, mean of three wells (Fig. 7a) (reading M123, compound at 50 (head suffix _50)): 1.514
Th-T fluorescence, mean of three wells (Fig. 7a) (reading M124, compound at 10 (head suffix _10)): 2.48
Th-T fluorescence, mean of three wells (Fig. 7a) (reading M124, compound at 20 (head suffix _20)): 2.17
Th-T fluorescence, mean of three wells (Fig. 7a) (reading M124, compound at 50 (head suffix _50)): 1.559
Th-T fluorescence, mean of three wells (Fig. 7a) (reading M125, compound at 10 (head suffix _10)): 2.466
Th-T fluorescence, mean of three wells (Fig. 7a) (reading M125, compound at 20 (head suffix _20)): 2.169
Th-T fluorescence, mean of three wells (Fig. 7a) (reading M125, compound at 50 (head suffix _50)): 1.553
Th-T fluorescence, mean of three wells (Fig. 7a) (reading M126, compound at 10 (head suffix _10)): 2.458
Th-T fluorescence, mean of three wells (Fig. 7a) (reading M126, compound at 20 (head suffix _20)): 2.184
Th-T fluorescence, mean of three wells (Fig. 7a) (reading M126, compound at 50 (head suffix _50)): 1.559
Th-T fluorescence, mean of three wells (Fig. 7a) (reading M127, compound at 10 (head suffix _10)): 2.439
Th-T fluorescence, mean of three wells (Fig. 7a) (reading M127, compound at 20 (head suffix _20)): 2.22
Th-T fluorescence, mean of three wells (Fig. 7a) (reading M127, compound at 50 (head suffix _50)): 1.57
Th-T fluorescence, mean of three wells (Fig. 7a) (reading M128, compound at 10 (head suffix _10)): 2.428
Th-T fluorescence, mean of three wells (Fig. 7a) (reading M128, compound at 20 (head suffix _20)): 2.151
Th-T fluorescence, mean of three wells (Fig. 7a) (reading M128, compound at 50 (head suffix _50)): 1.57
Th-T fluorescence, mean of three wells (time-course reading M97): 2.083
Th-T fluorescence, mean of three wells (time-course reading M98): 2.088
Th-T fluorescence, mean of three wells (time-course reading M99): 2.073
Th-T fluorescence, mean of three wells (time-course reading M100): 2.078
Th-T fluorescence, mean of three wells (time-course reading M101): 2.074
Th-T fluorescence, mean of three wells (time-course reading M102): 2.082
Th-T fluorescence, mean of three wells (time-course reading M103): 2.066
Th-T fluorescence, mean of three wells (time-course reading M104): 2.071
Th-T fluorescence, mean of three wells (time-course reading M105): 2.058
Th-T fluorescence, mean of three wells (time-course reading M106): 2.067
Th-T fluorescence, mean of three wells (time-course reading M107): 2.067
Th-T fluorescence, mean of three wells (time-course reading M108): 2.064
Th-T fluorescence, mean of three wells (time-course reading M109): 2.047
Th-T fluorescence, mean of three wells (time-course reading M110): 2.071
Th-T fluorescence, mean of three wells (time-course reading M111): 2.087
Th-T fluorescence, mean of three wells (time-course reading M112): 2.064
Th-T fluorescence, mean of three wells (time-course reading M113): 2.068
Th-T fluorescence, mean of three wells (time-course reading M114): 2.053
Th-T fluorescence, mean of three wells (time-course reading M115): 2.069
Th-T fluorescence, mean of three wells (time-course reading M116): 2.057
